Measurements taken from ChEMBL document CHEMBL1201862, “PubChem BioAssay data set” (2004).
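Five concentrations, 48 hours, 96-well plates. GI50: concentration for 50% inhibition of growth.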 Active and inactive are the calls of the source. Rule as the data show it: active = GI50 up to about 1.1 µM and inactive = higher.

What was measured:
Experiment in all cases: NCI anticancer screen, dose series, 48 h
[1] = test system: MDA-MB-231
[2] = test system: SK-MEL-2
[3] = test system: A498
[4] = test system: IGROV-1
[5] = test system: COLO 205
[6] = test system: OVCAR-5
[7] = test system: BT-549
[8] = test system: DU-145
[9] = test system: UACC-62
[10] = test system: SNB-19
[11] = test system: OVCAR-3
[12] = test system: Malme-3M
[13] = test system: NCI/ADR-RES
[14] = test system: PC-3
[15] = test system: UO-31
[16] = test system: NCI-H23
[17] = test system: T47D
[18] = test system: UACC-257
[19] = test system: HL-60
[20] = test system: LOX IMVI

Cc1cc(C(=O)CCCCOc2ccc(C3=NCCO3)cc2)c(C)n1C
GI50 [1]: > 100 µM (inactive) | GI50 [2]: 28.7 µM (inactive) | GI50 [3]: 34.6 µM (inactive) | GI50 [4]: 37.2 µM (inactive) | GI50 [5]: 52.4 µM (inactive) | GI50 [6]: 71.6 µM (inactive) | GI50 [7]: 33.3 µM (inactive) | GI50 [8]: 24.3 µM (inactive) | GI50 [9]: > 10 µM (inactive) | GI50 [10]: 25.1 µM (inactive) | GI50 [11]: 38.8 µM (inactive) | GI50 [12]: 35.3 µM (inactive) | GI50 [13]: 26.7 µM (inactive) | GI50 [14]: 19.9 µM (inactive) | GI50 [15]: 39.9 µM (inactive) | GI50 [16]: 41.1 µM (inactive) | GI50 [17]: 23 µM (inactive) | GI50 [18]: 3.98 µM (inactive) | GI50 [19]: 0.0883 µM (active)

COc1ccc(/C=N/NC(=O)c2ccccc2Nc2ccccc2C(=O)N/N=C/c2ccc(OC)c(OC)c2)cc1OC
GI50 [1]: 29.6 µM (inactive) | GI50 [2]: > 100 µM (inactive) | GI50 [3]: > 100 µM (inactive) | GI50 [4]: > 100 µM (inactive) | GI50 [5]: > 100 µM (inactive) | GI50 [6]: > 100 µM (inactive) | GI50 [7]: > 100 µM (inactive) | GI50 [8]: > 100 µM (inactive) | GI50 [9]: > 100 µM (inactive) | GI50 [10]: > 100 µM (inactive) | GI50 [11]: > 100 µM (inactive) | GI50 [12]: 51.5 µM (inactive) | GI50 [13]: > 100 µM (inactive) | GI50 [14]: > 100 µM (inactive) | GI50 [15]: > 100 µM (inactive) | GI50 [16]: > 100 µM (inactive) | GI50 [17]: > 100 µM (inactive) | GI50 [18]: > 100 µM (inactive) | GI50 [19]: > 100 µM (inactive)

COC(=O)Cc1ccc2c(cnn2-c2ccccc2)c1OC
GI50 [1]: > 10 µM (inactive) | GI50 [2]: > 10 µM (inactive) | GI50 [3]: > 10 µM (inactive) | GI50 [4]: > 10 µM (inactive) | GI50 [5]: > 10 µM (inactive) | GI50 [6]: > 10 µM (inactive) | GI50 [7]: > 10 µM (inactive) | GI50 [8]: > 10 µM (inactive) | GI50 [9]: > 10 µM (inactive) | GI50 [10]: > 10 µM (inactive) | GI50 [11]: > 10 µM (inactive) | GI50 [12]: > 10 µM (inactive) | GI50 [13]: > 10 µM (inactive) | GI50 [14]: > 10 µM (inactive) | GI50 [16]: > 10 µM (inactive) | GI50 [17]: > 10 µM (inactive) | GI50 [18]: > 10 µM (inactive) | GI50 [20]: > 10 µM (inactive) | GI50 [19]: > 10 µM (inactive)

Cc1cc2c(cc1Cl)SC(NN(C)C)=NS2(=O)=O
GI50 [1]: > 10 µM (inactive) | GI50 [2]: > 10 µM (inactive) | GI50 [3]: > 10 µM (inactive) | GI50 [4]: > 10 µM (inactive) | GI50 [5]: > 10 µM (inactive) | GI50 [6]: > 10 µM (inactive) | GI50 [7]: > 10 µM (inactive) | GI50 [8]: > 10 µM (inactive) | GI50 [9]: > 10 µM (inactive) | GI50 [10]: > 10 µM (inactive) | GI50 [11]: > 10 µM (inactive) | GI50 [12]: > 10 µM (inactive) | GI50 [13]: > 10 µM (inactive) | GI50 [14]: > 10 µM (inactive) | GI50 [16]: > 10 µM (inactive) | GI50 [17]: > 10 µM (inactive) | GI50 [18]: > 10 µM (inactive) | GI50 [20]: > 10 µM (inactive) | GI50 [19]: > 10 µM (inactive)

COc1ccc(N2CCOCC2)cc1
GI50 [1]: > 100 µM (inactive) | GI50 [2]: > 100 µM (inactive) | GI50 [3]: > 100 µM (inactive) | GI50 [4]: > 100 µM (inactive) | GI50 [5]: > 100 µM (inactive) | GI50 [6]: > 100 µM (inactive) | GI50 [7]: > 100 µM (inactive) | GI50 [8]: > 100 µM (inactive) | GI50 [9]: > 100 µM (inactive) | GI50 [10]: > 100 µM (inactive) | GI50 [11]: > 100 µM (inactive) | GI50 [12]: > 100 µM (inactive) | GI50 [13]: > 100 µM (inactive) | GI50 [14]: > 100 µM (inactive) | GI50 [15]: > 100 µM (inactive) | GI50 [16]: > 100 µM (inactive) | GI50 [17]: > 100 µM (inactive) | GI50 [18]: > 100 µM (inactive) | GI50 [19]: > 100 µM (inactive)

CCN(CC)c1ccc2cc(C(=O)Nc3ccc(C)cc3)c(=N)oc2c1
GI50 [1]: > 100 µM (inactive) | GI50 [2]: > 100 µM (inactive) | GI50 [3]: > 100 µM (inactive) | GI50 [4]: > 100 µM (inactive) | GI50 [5]: > 100 µM (inactive) | GI50 [6]: > 100 µM (inactive) | GI50 [7]: > 100 µM (inactive) | GI50 [8]: > 100 µM (inactive) | GI50 [9]: > 100 µM (inactive) | GI50 [10]: > 100 µM (inactive) | GI50 [11]: > 100 µM (inactive) | GI50 [12]: > 100 µM (inactive) | GI50 [13]: > 100 µM (inactive) | GI50 [14]: > 100 µM (inactive) | GI50 [16]: > 100 µM (inactive) | GI50 [17]: > 100 µM (inactive) | GI50 [18]: > 100 µM (inactive) | GI50 [20]: > 100 µM (inactive) | GI50 [19]: > 100 µM (inactive)
